The values that follow are results of earlier work, collected in patent publication US7273870B2, “Stabilized difloxacin injectable solution” (Wyeth, priority 2002, dated 2007).

Structures are written as SMILES.

Take `CN1CCN(c2cc3c(cc2F)c(=O)c(C(=O)O)cn3-c2ccc(F)cc2)CC1` [Difloxacin, 6-fluoro-1-(4-fluorophenyl)-1,4-dihydro-7-(4-methyl-1-piperadinyl) 4-oxo-3-quinolinecarboxylic acid]: the Solubility in water result is on record as “not highly soluble in water”.
